According to ChEMBL document CHEMBL1649073, “Design and optimization of benzimidazole-containing transient receptor potential melastatin 8 (TRPM8) antagonists” (J Med Chem, 2011):

Key:
[1] = Drug level in rat brain at 3 mg/kg, po after 150 mins; assay type: ADME, organism-based; design: dose 3 mg/kg, route oral; settings: read-out: Drug uptake
[2] = Drug level in rat plasma at 10 mg/kg, po after 150 mins; assay type: ADME, organism-based; design: dose 10 mg/kg, route oral; settings: read-out: Drug uptake
[3] = Cmax in rat at 10 mg/kg, po; assay type: ADME, organism-based; design: dose 10 mg/kg, route oral; settings: in vivo
Canis familiaris [4] = test: AUC in dog at 10 mg/kg, po; settings: in vivo
[5] = Drug level in rat plasma at 3 mg/kg, po after 150 mins; assay type: ADME, organism-based; design: dose 3 mg/kg, route oral; settings: read-out: Drug uptake
[6] = Drug level in rat plasma at 5.6 mg/kg, po after 150 mins; assay type: ADME, organism-based; design: dose 5.6 mg/kg, route oral; settings: read-out: Drug uptake
[7] = Drug level in rat brain at 5.6 mg/kg, po after 150 mins; assay type: ADME, organism-based; design: dose 5.6 mg/kg, route oral; settings: read-out: Drug uptake
[8] = Plasma concentration in Sprague-Dawley rat at 1 to 30 mg/kg, po after 4 hrs; assay type: ADME, organism-based; design: dose 1-30 mg/kg, route oral
Canis familiaris [9] = test: Oral bioavailability in dog at 10 mg/kg; settings: in vivo
[10] = Volume of distribution at steady state in rat at 2 mg/kg, iv; assay type: ADME, organism-based; design: dose 2 mg/kg, route intravenous; settings: in vivo, read-out: Vdss
[11] = Cmax in dog at 10 mg/kg, po; settings: in vivo
[12] = Volume of distribution at steady state in dog at 2 mg/kg, iv; assay type: ADME, organism-based, Canis lupus familiaris; design: dose 2 mg/kg, route intravenous; settings: in vivo, read-out: Vdss
[13] = AUC in rat at 10 mg/kg, po; assay type: ADME, organism-based; design: dose 10 mg/kg, route oral; settings: plasma
[14] = Oral bioavailability in rat at 10 mg/kg; assay type: ADME, organism-based; settings: in vivo
[15] = Plasma concentration in guinea pig at 10 mg/kg, iv after 5 mins; assay type: ADME, organism-based, Cavia porcellus; design: dose 10 mg/kg, route intravenous
[16] = Drug level in rat brain at 10 mg/kg, po after 150 mins; assay type: ADME, organism-based; design: dose 10 mg/kg, route oral; settings: read-out: Drug uptake
Rattus norvegicus = test: Volume of distribution at steady state in rat at 10 mg/kg, po; assay type: ADME, organism-based; design: dose 10 mg/kg, route oral; settings: in vivo

| concentration at […] [1] [ng/g] | concentration at […] [2] [ng/mL] | Cmax [3] [ng/mL] | AUC (Canis familiaris [4]) [ng·h/mL] | concentration at […] [5] [ng/mL] | concentration at […] [6] [ng/mL] | concentration at […] [7] [ng/g] | concentration at 4 h [8] [ng/mL] | F (Canis familiaris [9]) [%] | Vd [10] [L/kg] | Cmax [11] [ng/mL] | Vd [12] [L/kg] | AUC [13] [ng·h/mL] | bioavailability [14] [%] | concentration at 5 min [15] [ng/mL] | concentration at […] [16] [ng/g] | Vdss (Rattus norvegicus) [L/kg] | SMILES |
| --- | --- | --- | --- | --- | --- | --- | --- | --- | --- | --- | --- | --- | --- | --- | --- | --- | --- |
| 175 | 1040 | 1260 | 5252 | 295 | 662 | 414 | 254 | 45 | 2.92 | 1640 | 4.43 | 12300 | 96 | 18200 | 638 |  | FC(F)(F)c1ccccc1-c1cc(C(F)(F)F)c2[nH]c(C3=NOC4(CCCCC4)C3)nc2c1 |
|  |  | 230 |  |  |  |  |  |  |  |  |  |  |  |  |  | 13.6 | FC(F)(F)c1ccccc1-c1ccc2nc(C3=NOC4(CCCCC4)C3)[nH]c2c1 |
